What was measured:
[1] = Binding affinity to wild-type Zymomonas mobilis TGT overexpressed in Escherichia coli BL21(DE3) by isothermal titration calorimetric analysis
[2] = Binding affinity to Zymomonas mobilis TGT E235Q mutant overexpressed in Escherichia coli BL21(DE3) by isothermal titration calorimetric analysis
[3] = Binding affinity to Zymomonas mobilis TGT D102N mutant overexpressed in Escherichia coli BL21(DE3) by isothermal titration calorimetric analysis
[4] = Binding affinity to Zymomonas mobilis TGT D156N mutant expressed in Escherichia coli Rosetta 2(DE3) by isothermal titration calorimetric analysis
[5] = tested on: Zymomonas mobilis; assay: Selectivity ratio of Kd for Zymomonas mobilis TGT D156N mutant to Kd for wild-type Zymomonas mobilis TGT
[6] = tested on: Zymomonas mobilis; assay: Selectivity ratio of Kd for Zymomonas mobilis TGT D102N mutant to Kd for wild-type Zymomonas mobilis TGT

Cc1nc2cc3nc(N)[nH]c(=O)c3cc2[nH]1
Kd [1]: 0.288 µM

Nc1nc2cc3[nH]c(NCCN4CCOCC4)nc3cc2c(=O)[nH]1
Kd [1]: 0.035 µM
Kd [2]: 1.28 µM

CNc1nc2cc3c(=O)[nH]cnc3cc2[nH]1
Kd [1]: 0.411 µM

CNc1nc2cc3c(=O)[nH]c(N)nc3cc2[nH]1
Kd [1]: 0.0524 µM
Kd [3]: 0.146 µM
Kd [4]: 0.188 µM
Selectivity ratio [5]: 4
Selectivity ratio [6]: 3

— ChEMBL document CHEMBL3297712, “Chasing protons: how isothermal titration calorimetry, mutagenesis, and pKa calculations trace the locus of charge in ligand binding to a tRNA-binding enzyme” (J Med Chem, 2014)
